One test addresses Vps34 enzyme (Homo sapiens (Human), UniProt Q8NEB9). The test can be described thus: Vps34 biochemical assay (Adapta kinase assay). The note with it: 20 μM ATP and 200 μM PI:PS in substrate mix, 1 h at room temperature, read-out: Median IC50 uM Adapta. The procedure: Dilution series of compounds of the invention were prepared in DMSO at 100 times the final assay concentration (n1=n0/3 in 10 points). The compounds were further diluted to 4 times the assay concentration in assay buffer (Life technologies buffer Q, PV5125, diluted 5 times supplemented with 2 mM DTT and 2 mM MnCl2). 2.5 μl of the diluted compounds were added to a 384 well assay plate followed by 2.5 μl of 16.5 nM Vps34 enzyme (Life technologies, PV5126). Enzyme and compounds were pre-incubated at rt for 15 min. Then 5 μl of substrate mix containing 20 μM ATP (Life technologies, PV3227) and 200 μM PI:PS substrate (Life technologies, PV5122) in assay buffer was added to the wells containing compound and enzyme. Mixing was performed by pipetting several times. The reaction was incubated at room temperature for 1 h. Then 5 μl stop-detection mix, prepared as described in the Adapta kinase assay kit instructions (Life technologies, PV5099) containing Adapta Eu-anti-ADP antibody (2.3 nM), Alexa Fluor 647 ADP tracer (9 nM) and EDTA (30 mM) in TR-FRET buffer, was added to quench the reaction. Mixing was performed by pipetting several times. The assay plate was then incubated at room temperature for 30 min and read with Artemis micro plate reader. Percent inhibition of the compounds as compared to DMSO treated control samples was calculated. By the use of Dotmatics software compound concentration versus percent inhibition was fitted to generate IC50 values.

The subject of test [1] is autophagy in HOS cells (GFP-LC3). Description: High content screening autophagy assay (GFP-LC3 foci). Type of test: cell-based, Human. The note with it: foci area per cell, read-out: Median IC50 (uM) Cellular assay. As for the experimental part:
Human osteosarcoma cells (HOS) stably expressing a Green Fluorescent Protein (GFP) tagged LC3 (GFP-LC3) were used to determine the inhibitory effect on autophagy of proprietary compounds. For that purpose, autophagy was activated by using the mTOR inhibitor KU-0063794 at 500 nM in the presence of Bafilomycin A1 (Sigma-Aldrich) at 5 nM. Shortly, cells were plated overnight in clear bottom 96-well plates in DMEM-High Modified media (Hi-Clone Cat #SH30285.01). At the start of the experiment, the media was removed and replaced with fresh media containing the mTOR inhibitor, Bafilomycin A1 and the vehicle or a test compound as indicated. After 6 hours the media was removed, cells were washed twice with ice-cold phosphate buffered saline (PBS) and fixed with 4% paraformaldehyde for 20 minutes at room temperature. Then the cells were washed twice with ice-cold PBS before adding Hoechst 33342 at 1 μg/ml in PBS for nuclear staining. After incubation overnight at 4° C., cells were washed once with PBS to remove the excess of dye and 100 μl of PBS was added to each well. Images were acquired at 20× magnification, 6 images per well, using the ImageXpress automated microscope (Molecular Devices Inc.) and analyzed with MetaXpress software to identify LC3-GFP foci. Foci area per cell values were used to generate dose response curves and IC50 values were calculated using the non-linear fitting analysis in GraphPad Prism software.

Setting [2] is: Homo sapiens, HOS, 6 h, HOS cells with GFP-LC3, autophagy activated by KU-0063794 500 nM with Bafilomycin A1 5 nM.

Read-outs that look alike come from different tables or passages of the source.

Sequence of Vps34 enzyme (Q8NEB9 whole entry): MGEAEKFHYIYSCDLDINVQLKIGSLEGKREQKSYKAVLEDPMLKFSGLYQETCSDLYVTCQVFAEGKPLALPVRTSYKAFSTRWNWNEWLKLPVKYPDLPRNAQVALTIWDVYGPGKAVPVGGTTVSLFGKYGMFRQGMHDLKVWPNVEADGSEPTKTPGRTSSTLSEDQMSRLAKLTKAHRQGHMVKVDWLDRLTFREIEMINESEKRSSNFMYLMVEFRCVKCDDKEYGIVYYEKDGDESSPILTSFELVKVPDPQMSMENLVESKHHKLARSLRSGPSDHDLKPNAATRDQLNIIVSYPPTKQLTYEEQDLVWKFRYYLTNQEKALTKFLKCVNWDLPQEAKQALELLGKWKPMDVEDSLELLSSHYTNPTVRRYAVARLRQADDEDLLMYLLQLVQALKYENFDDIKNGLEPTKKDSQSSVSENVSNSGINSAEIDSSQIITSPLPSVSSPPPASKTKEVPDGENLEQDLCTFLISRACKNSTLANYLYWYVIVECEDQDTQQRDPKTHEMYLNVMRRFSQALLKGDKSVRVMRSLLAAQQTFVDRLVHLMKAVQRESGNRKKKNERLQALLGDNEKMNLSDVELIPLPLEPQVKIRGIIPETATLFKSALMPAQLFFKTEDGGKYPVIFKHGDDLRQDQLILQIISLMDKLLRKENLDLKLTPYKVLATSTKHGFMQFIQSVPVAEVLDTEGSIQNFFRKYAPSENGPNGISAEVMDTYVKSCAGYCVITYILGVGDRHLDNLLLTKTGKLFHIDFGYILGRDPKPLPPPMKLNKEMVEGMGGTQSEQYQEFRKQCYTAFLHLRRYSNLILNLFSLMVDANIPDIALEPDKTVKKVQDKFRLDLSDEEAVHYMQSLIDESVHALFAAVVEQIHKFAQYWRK

As for `C[C@@H]1COCCN1c1cc(N2CCOCC2C(F)(F)F)[nH]c(=O)c1` (single isomer, unassigned) [Example 43_1], the IC50 stood at 0.003 µM on Vps34 enzyme and 0.03 µM in test [1] (setting [2]).

Regarding `C[C@@H]1COCCN1c1cc(N2CCCC2c2cccc(C(F)(F)F)c2)[nH]c(=O)c1` (mixture of isomers) [Example 16, (R) and (S) 4-[(3R)-3-methylmorpholin-4-yl]-6-[2-[3-(trifluoromethyl)phenyl]pyrrolidin-1-yl]-1H-pyridin-2-one], the IC50 at Vps34 enzyme amounted to 0.04 µM; in test [1] (setting [2]), 0.3 µM.

Take `C[C@@H]1COCCN1c1cc(N2CCOCC2c2ccccc2)[nH]c(=O)c1` (single isomer, unassigned) [Example 26_1]: the IC50 on Vps34 enzyme stood at 0.04 µM; in test [1] (setting [2]), 0.2 µM.

Take `C[C@@H]1COCCN1c1cc(N2CCCC2c2cccc(Cl)c2)[nH]c(=O)c1` (single isomer, unassigned) [Example 36_2]: the half-inhibitory concentration (IC50) on Vps34 enzyme stood at 0.02 µM; in test [1] (HOS cells with GFP-LC3, autophagy activated by KU-0063794 500 nM with Bafilomycin A1 5 nM, 6 hours) it was 0.7 µM.

As for `COc1cccc(C2CCCN2c2cc(N3CCOCC3C)cc(=O)[nH]2)c1` (stereo not shown) [Example 7, 6-[2-(3-methoxyphenyl)pyrrolidin-1-yl]-4-(3-methylmorpholin-4-yl)-1H-pyridin-2-one], the IC50 at Vps34 enzyme was 0.004 µM; in test [1] (setting [2]), 0.5 µM.

On to `C[C@@H]1COCCN1c1cc(N2CCC[C@@H]2C(F)(F)F)[nH]c(=O)c1` [Example 35, 4-[(3R)-3-methylmorpholin-4-yl]-6-[(2R)-2-(trifluoromethyl)pyrrolidin-1-yl]-1H-pyridin-2-one], for which the IC50 on Vps34 enzyme is 0.009 µM; in test [1] (setting [2]), 0.7 µM.

As to `C[C@@H]1COCCN1c1cc(N2CCOCC2C(F)(F)F)[nH]c(=O)c1` (stereo partly drawn) [Example 32, 4-[(3R)-3-methylmorpholin-4-yl]-6-[3-(trifluoromethyl)morpholin-4-yl]-1H-pyridin-2-one], the figures for the IC50 (on Vps34 enzyme; in test [1] (setting [2])) were 0.006 µM and 0.3 µM, respectively.

As for `CC1COCCN1c1cc(C2CCOCC2)[nH]c(=O)c1` (stereo not shown) [Example 6, 4-(3-methylmorpholin-4-yl)-6-tetrahydropyran-4-yl-1H-pyridin-2-one], the IC50 was found to be 0.2 µM on Vps34 enzyme and 5 µM in test [1] (setting [2]).

In the case of `COc1cccc(C2CCCN2c2cc(N3CCOC[C@H]3C)cc(=O)[nH]2)c1` (single isomer, unassigned) [Example 17_2], the values for the IC50 (at Vps34 enzyme; in test [1] (setting [2])) were 0.006 µM and 0.3 µM, respectively.

For the compound `C[C@@H]1COCCN1c1cc(N2CCCC2c2cccc(Cl)c2)[nH]c(=O)c1` (single isomer, unassigned) [Example 36_1], the IC50 on Vps34 enzyme was 0.01 µM; in test [1] (setting [2]), 0.4 µM.

Consider `C[C@@H]1COCCN1c1cc(N2CCN(C(=O)Cc3ccc(F)cc3)CC2C(F)(F)F)[nH]c(=O)c1` (stereo partly drawn) [Example 47, 6-[4-[2-(4-fluorophenyl)acetyl]-2-(trifluoromethyl)piperazin-1-yl]-4-[(3R)-3-methylmorpholin-4-yl]-1H-pyridin-2-one], for which the IC50 on Vps34 enzyme was determined as 0.006 µM; in test [1] (setting [2]) it was 0.09 µM.

As to `COc1cccc(C2CCCN2c2cc(N3CCOC[C@H]3C)cc(=O)[nH]2)c1` (mixture of isomers) [Example 17, (R) and (S) 6-[2-(3-methoxyphenyl)pyrrolidin-1-yl]-4-[(3R)-3-methylmorpholin-4-yl]-1H-pyridin-2-one], the half-maximal inhibitory concentration (IC50) on Vps34 enzyme came out at 0.01 µM; in test [1] (setting [2]), 0.1 µM.

`O=c1cc(N2CCOCC2)cc(N2CCCC2c2ccccc2)[nH]1` (stereo not shown) [Example 1, 4-morpholino-6-(2-phenylpyrrolidin-1-yl)-1H-pyridin-2-one]: the IC50 at Vps34 enzyme was found to be 0.05 µM; in test [1] (setting [2]) it was 5 µM.

On to `O=c1cc(N2CCOCC2)cc(N2CCC[C@H]2c2ccccc2)[nH]1` [Example 3, 4-morpholino-6-[(2S)-2-phenylpyrrolidin-1-yl]-1H-pyridin-2-one], for which the IC50 on Vps34 enzyme worked out at 0.2 µM; in test [1] (setting [2]) it was 13 µM.
